Some results are limits rather than exact numbers.

Data set [1] has as its target T1, Bcl6 (Homo sapiens (Human), UniProt P41182). Kind of data set: Bcl-6 protein degradation experiment in Farage cells. It is filed as cell-based. The following applies: 24 hours. The protocol:
2. Bcl-6 Protein Degradation Experiment in Farage Cells
(§1) Farage cells purchased from ATCC were placed in an RPMI-1640 complete medium (containing 10% fetal bovine serum, 100 U/mL penicillin and 100 μg/mL streptomycin) and cultured at 37° C. and 5% CO2. The cells in the logarithmic growth phase were collected, and the cell suspension was adjusted to an appropriate density with the culture medium and added to a 6-well cell culture plate at a volume of 1 mL/well. The compounds to be tested were prepared to 2-fold the final concentration, 1 mL of the compounds at different concentrations were added to administration wells, a medium containing 0.2% DMSO was added to control wells, and the plate was incubated at 37° C. for 24 hours. The cells were collected into a 1.5 mL centrifuge tube, 25 μL of RIPA lysis buffer (containing 1× protease inhibitor cocktail) was added, and the cells were lysed on ice for 15 minutes and centrifuged at 12000 rpm/min at 4° C. for 10 minutes. The supernatant was collected and the protein content was determined using the BCA method. The protein sample to be tested was diluted to 0.8 mg/mL, Bcl6 was detected using a fully automated protein expression quantitative analyzer (ProteinSimple), and the internal reference protein was R-actin (both antibodies were from CST). The software (Compass for SW) of the fully automated protein expression quantitative analyzer was used to process the raw data and calculate the peak area and the Bcl6 expression rate relative to the control group. DC50 values were calculated using a four-parameter non-linear fitting model in Graphpad 8.3.0 software.

Data set [2] is described as follows: Pharmacokinetic test in mice. The following applies: i.g. 5 mg/kg. Type of data set: in vivo, ICR mice. Here is the method: 3. Pharmacokinetic Test in Mice
1.1 Experimental animal: male ICR mice, 25-30 g, 6 mice/compound, purchased from Chengdu Ddossy Experimental Animals Co., Ltd.
1.2 Experimental design: on the day of the experiment, the ICR mice were randomly grouped according to their body weights. The animals were fasted but with water available for 12 to 14 h one day before the administration, and were fed 4 h after the administration.

In data set [3] the target is T1, Bcl6. Kind of data set: Bcl-6 protein degradation experiment in OCI-LY1 cells. It is filed as cell-based. The following applies: 24 hours. The protocol:
4. Bcl-6 Protein Degradation Experiment in OCI-LY1 Cells
as §1, with “OCI-LY1” for “Farage”, “DSMZ” for “ATCC”, “IMDM” for “RPMI-1640”, “penicillin,” for “penicillin and”, “streptomycin and 50 µM mercaptoethanol)” for “streptomycin)”, “[…]” for “μL”

The nature of data set [4]: Pharmacokinetic test in rats. It is filed as in vivo, SD rats. To be noted: i.g. 5 mg/kg; for AUC(0-t): male, SD, rat, po, rats plasma. The protocol: 5. Pharmacokinetic Test in Rats
Experimental objective: in this experiment, a single dose of each test compound was administered to SD rats intravenously and intragastrically, and the concentrations of the test compounds in plasma of rats were measured to evaluate the pharmacokinetic characteristics of the test compounds in rats.
Experimental animal: male SD rats, 200-220 g, 6-8 weeks old, 6 rats/compound, purchased from Chengdu Ddossy Experimental Animals Co., Ltd.
Experimental method: on the day of the experiment, the SD rats were randomly grouped according to their body weights. The animals were fasted but with water available for 12 to 14 h one day before the administration, and were fed 4 h after the administration.
Sampling: Before and after the administration, 0.1 mL of blood was taken from the orbits under isoflurane anesthesia and placed in an EDTAK2 centrifuge tube. Centrifugation was carried out at 5000 rpm at 4° C. for 10 min, and the plasma was collected.
The plasma collection time points for IV&PO groups were 0, 5 min, 15 min, 30 min, 1 h, 2 h, 4 h, 7h, and 24 h.
Before analysis and detection, all samples were stored at −60° C. The samples were analyzed quantitatively by LC-MS/MS. PGP-3212J

Data set [5] concerns the target hERG potassium ion channel (Homo sapiens (Human), UniProt Q12809). Description: Test for hERG potassium ion channel (manual patch-clamp, CHO cells). It is filed as cell-based. To be noted: CHO cells stably expressing hERG, whole cell patch-clamp; read-out: IC50 of inhibitory effects on hERG potassium channel current. From the text:
8. Test for hERG Potassium Ion Channel
Experimental platform: electrophysiological manual patch-clamp system
Cell line: Chinese hamster ovary (CHO) cell lines stably expressing hERG potassium ion channel
Experimental method: in CHO (Chinese Hamster Ovary) cells stably expressing hERG potassium channel, the whole cell patch-clamp technique was used to record hERG potassium channel current at room temperature. The glass microelectrode was made of a glass electrode blank (BF150-86-10, Sutter) by a puller. The tip resistance after filling the liquid in the electrode was about 2-5 MΩ. The glass microelectrode can be connected to the patch-clamp amplifier by inserting the glass microelectrode into an amplifier probe. The clamping voltage and data recording were controlled and recorded by the pClamp 10 software through a computer. The sampling frequency was 10 kHz, and the filtering frequency was 2 kHz. After the whole cell records were obtained, the cells were clamped at −80 mV, and the step voltage that induced the hERG potassium current (IhERG) was depolarized from −80 mV to +20 mV for 2 s, then repolarized to −50 mV, and returned to −80 mV after 1 s. This voltage stimulation was given every 10 s, and the administration process was started after the hERG potassium current was confirmed to be stable (at least 1 minute). The compound was administered for at least 1 minute at each test concentration, and at least 2 cells (n≥2) were tested at each concentration.
Data processing: data analysis processing was carried out by using pClamp 10, GraphPad Prism 5 and Excel software. The inhibition degree of hERG potassium current (peak value of hERG tail current induced at −50 mV) at different compound concentrations was calculated by the following formula: […]
where Inhibition % represents the percentage of inhibition of hERG potassium current by the compound, and I and Io represent the amplitude of hERG potassium current after and before the administration, respectively.
Compound IC50 was calculated using GraphPad Prism 5 software by fitting according to the following equation: […]
Among the equation, X represents the Log value of the tested concentration of the test sample, Y represents the inhibition percentage at the corresponding concentration, and Bottom and Top represent the minimum and maximum inhibition percentage, respectively.
A general note: hERG is a cardiac potassium channel; its block is linked to QT prolongation.

Sequence of hERG potassium ion channel (Q12809 whole entry): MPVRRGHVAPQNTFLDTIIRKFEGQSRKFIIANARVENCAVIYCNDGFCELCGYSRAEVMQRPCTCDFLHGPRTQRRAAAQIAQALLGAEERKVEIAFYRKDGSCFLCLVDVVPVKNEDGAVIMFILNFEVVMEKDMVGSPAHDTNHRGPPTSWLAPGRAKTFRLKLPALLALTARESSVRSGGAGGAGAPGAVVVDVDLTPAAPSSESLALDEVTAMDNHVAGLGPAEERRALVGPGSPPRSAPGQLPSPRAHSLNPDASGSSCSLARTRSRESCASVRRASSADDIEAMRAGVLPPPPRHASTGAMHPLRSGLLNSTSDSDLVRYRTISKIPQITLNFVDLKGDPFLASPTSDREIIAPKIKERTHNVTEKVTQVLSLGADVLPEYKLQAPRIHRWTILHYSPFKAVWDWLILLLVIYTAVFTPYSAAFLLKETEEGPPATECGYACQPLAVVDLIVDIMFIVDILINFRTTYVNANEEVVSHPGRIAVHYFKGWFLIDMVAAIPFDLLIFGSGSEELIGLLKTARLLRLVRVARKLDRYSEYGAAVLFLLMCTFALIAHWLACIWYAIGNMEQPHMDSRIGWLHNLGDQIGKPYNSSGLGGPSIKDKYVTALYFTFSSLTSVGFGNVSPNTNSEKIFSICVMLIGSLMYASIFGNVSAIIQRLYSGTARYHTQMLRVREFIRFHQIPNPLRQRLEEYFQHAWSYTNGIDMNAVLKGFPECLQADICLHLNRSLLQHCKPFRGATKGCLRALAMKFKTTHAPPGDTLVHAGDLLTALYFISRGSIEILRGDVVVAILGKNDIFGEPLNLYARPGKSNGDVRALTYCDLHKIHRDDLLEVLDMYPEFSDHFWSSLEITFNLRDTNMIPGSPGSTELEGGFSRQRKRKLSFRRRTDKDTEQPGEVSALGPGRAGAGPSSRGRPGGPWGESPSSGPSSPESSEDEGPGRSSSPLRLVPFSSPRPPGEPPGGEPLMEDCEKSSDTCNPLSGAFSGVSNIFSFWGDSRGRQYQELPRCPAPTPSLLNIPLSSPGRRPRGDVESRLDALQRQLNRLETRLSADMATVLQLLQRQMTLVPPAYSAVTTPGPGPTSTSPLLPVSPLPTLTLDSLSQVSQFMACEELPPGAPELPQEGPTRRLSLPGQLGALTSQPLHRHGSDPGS

A word on the DC50: it is the midpoint of the concentration-degradation curve. Higher therefore signals a less potent degrader. The term AUC(0-t) denotes exposure summed from dosing to a finite time, without extrapolation to infinity. Read a low AUC(0-t) as low exposure. As a reminder, the IC50 is the concentration at which inhibition is half-maximal. As to `CNC(=O)COc1cc2cc(Nc3nc(N4CCN(CC5CCN(c6ccc(C7CCC(=O)NC7=O)cc6)CC5)CC4)ncc3Cl)ccc2n(C)c1=O` (centres unmarked) [Compound 8], the DC50 in data set [1] was below 10 nM; in data set [3], below 100 nM; in data set [3] (listed as compound 8) it was below 5 nM. The AUC(0-t) in data set [2] (male, ICR, mouse, po, mice plasma) was above 1000 ng·h/mL; in data set [4], above 1000 ng·h/mL. In addition, the F in data set [2] (mice) and in data set [4] (rats) was above 50% each time. Further, the IC50 in data set [5] was above 40000 nM.

In the case of `[2H]C([2H])([2H])NC(=O)COc1cc2cc(Nc3nc(N4CCC(O[C@H]5C[C@H](N6CCN7c8cc(F)c(C9CCC(=O)NC9=O)cc8CC[C@H]7C6)C5)CC4)ncc3Cl)ccc2n(C([2H])([2H])[2H])c1=O` (some centres unmarked) [Trifluoroacetate of compound 71], in data set [1], the DC50 was below 10 nM. This compound also showed an AUC(0-t) in data set [4] above 1000 ng·h/mL. Moreover, in data set [5], the IC50 was above 40000 nM.

As to `[2H]C([2H])([2H])NC(=O)COc1cc2cc(Nc3nc(N4CCC(O[C@H]5C[C@H](N6CCN7c8cc(F)c(C9CCC(=O)NC9=O)cc8CC[C@H]7C6)C5)CC4)ncc3Cl)ccc2n(C)c1=O` (some centres unmarked) [Trifluoroacetate of compound 72], in data set [1], the DC50 is below 10 nM. Also, the AUC(0-t) in data set [4] was above 1000 ng·h/mL. For the same compound, the IC50 in data set [5] is above 40000 nM.

Compound `[2H]C([2H])([2H])n1c(=O)c(OCC(=O)NC)cc2cc(Nc3nc(N4CCC(O[C@H]5C[C@H](N6CCN7c8cc(F)c(C9CCC(=O)NC9=O)cc8CC[C@H]7C6)C5)CC4)ncc3Cl)ccc21` (some centres unmarked) [Trifluoroacetate of compound 73] came in with a DC50 in data set [1] below 10 nM. This compound registered an exposure AUC(0-t) in data set [4] above 1000 ng·h/mL. Moreover, the IC50 in data set [5] was above 40000 nM.

`CNC(=O)COc1cc2cc(Nc3nc(N4CCC(O[C@H]5C[C@H](N6CCn7c(cc8cc(C9CCC(=O)NC9=O)c(F)cc87)C6)C5)CC4)ncc3Cl)ccc2n(C(C)C)c1=O` (some centres unmarked) [Trifluoroacetate of compound 78] returned a DC50 in data set [1] below 10 nM. This compound also yielded an AUC(0-t) in data set [4] above 1000 ng·h/mL. Further, the IC50 in data set [5] is above 40000 nM.
